# Results taken from ChEMBL document CHEMBL3352801, “Synthesis and lipid-lowering evaluation of 3-methyl-1H-purine-2,6-dione derivatives as potent and orally available anti-obesity agents” (Eur J Med Chem, 2014).
# Active and inactive are the calls of the source. The rule behind the calls is not given here.
# Key:
# 3T3-L1 = test: Inhibition of triglyceride accumulation in mouse 3T3L1 cells at 10 uM after 24 hrs; type: functional
# Mus musculus [1] = test: Antiobesity activity in diet-induced obese C57Bl/6 mouse assessed as reduction in HOMA-IR value at 50 mg/kg/day, po for 4 weeks administered with high-fat diet (reference value: 3.06 +/- 0.85 no_unit); type: functional
# Rattus norvegicus [2] = test: Acute toxicity in Sprague-Dawley rat assessed as mortality at 2.5 g/kg, po as single dose measured after 7 days; type: organism-based; conditions: in vivo, 2500 mg/kg, 168 h
# Mus musculus [3] = test: Antiobesity activity in diet-induced obese C57Bl/6 mouse assessed as reduction in fat accumulation in liver at 50 mg/kg/day, po for 4 weeks administered with high-fat diet by Oil Red O staining-based histological method; type: functional, organism-based
# Mus musculus [4] = test: Toxicity in diet-induced obese C57Bl/6 mouse assessed as change in ALT level at 50 mg/kg/day, po for 4 weeks administered with high-fat diet (reference value: 33.00 +/- 18.23 U/L); type: organism-based; design: route oral; conditions: in vivo, 672 h
# Mus musculus [5] = test: Antiobesity activity in diet-induced obese C57Bl/6 mouse assessed as reduction in hepatic triglyceride level at 50 mg/kg/day, po for 4 weeks administered with high-fat diet by Oil Red O staining-based histological method; type: functional; design: scale not given: the % may be the effect or the level left
# Rattus norvegicus [6] = test: Acute toxicity in Sprague-Dawley rat assessed as clinical signs at 2.5 g/kg, po as single dose measured after 7 days; type: organism-based; conditions: in vivo, 2500 mg/kg, 168 h
# Mus musculus [7] = test: Antiobesity activity in diet-induced obese C57Bl/6 mouse assessed as loss of liver weight at 50 mg/kg/day, po for 4 weeks administered with high-fat diet; type: functional
# Rattus norvegicus [8] = test: Acute toxicity in Sprague-Dawley rat assessed as change in body weight at 2.5 g/kg, po as single dose measured after 7 days; type: organism-based; conditions: in vivo, 2500 mg/kg, 168 h
# Mus musculus [9] = test: Toxicity in diet-induced obese C57Bl/6 mouse assessed as change in food intake at 50 mg/kg/day, po for 4 weeks administered with high-fat diet; type: organism-based; design: route oral; conditions: in vivo, 672 h
# Mus musculus [10] = test: Increase in glucose tolerance in diet-induced obese C57Bl/6 mouse at 50 mg/kg/day, po for 4 weeks by oral glucose tolerance test; type: functional, organism-based
# Mus musculus [11] = test: Antiobesity activity in diet-induced obese C57Bl/6 mouse assessed as reduction in body weight at 50 mg/kg/day, po for 4 weeks administered with high-fat diet; type: functional; design: scale not given: the % may be the effect or the level left
# Mus musculus [12] = test: Antiobesity activity in diet-induced obese C57Bl/6 mouse assessed as reduction in lipid droplets in liver at 50 mg/kg/day, po for 4 weeks administered with high-fat diet by Oil Red O staining-based histological method; type: functional, organism-based
# Mus musculus [13] = test: Antiobesity activity in diet-induced obese C57Bl/6 mouse assessed as reduction in triglyceride level at 50 mg/kg/day, po for 4 weeks administered with high-fat diet (reference value: 0.93 +/- 0.09 mM); type: functional
# Mus musculus [14] = test: Antiobesity activity in diet-induced obese C57Bl/6 mouse assessed as loss of epididymal fat mass at 50 mg/kg/day, po for 4 weeks administered with high-fat diet; type: functional
# Mus musculus [15] = test: Antiobesity activity in diet-induced obese C57Bl/6 mouse assessed as increase in HDL level at 50 mg/kg/day, po for 4 weeks administered with high-fat diet (reference value: 0.60 +/- 0.17 mM); type: functional
# Mus musculus [16] = test: Antiobesity activity in diet-induced obese C57Bl/6 mouse assessed as reduction in fasting blood glucose at 50 mg/kg/day, po for 4 weeks administered with high-fat diet (reference value: 5.0 +/- 1.30 mM); type: functional
# Mus musculus [17] = test: Antiobesity activity in diet-induced obese C57Bl/6 mouse assessed as change in insulin level at 50 mg/kg/day, po for 4 weeks administered with high-fat diet (reference value: 11.85 +/- 2.6 mU); type: functional
# Mus musculus [18] = test: Toxicity in diet-induced obese C57Bl/6 mouse assessed as change in AST level at 50 mg/kg/day, po for 4 weeks administered with high-fat diet (reference value: 125.00 +/- 35.00 U/L); type: organism-based; design: route oral; conditions: in vivo, 672 h
# Mus musculus [19] = test: Antiobesity activity in diet-induced obese C57Bl/6 mouse assessed as reduction in FFA level at 50 mg/kg/day, po for 4 weeks administered with high-fat diet (reference value: 19.55 +/- 1.57 ng/L); type: functional
# Mus musculus [20] = test: Antiobesity activity in diet-induced obese C57Bl/6 mouse assessed as reduction in LDL level at 50 mg/kg/day, po for 4 weeks administered with high-fat diet (reference value: 0.14 +/- 0.07 mM); type: functional
# Mus musculus [21] = test: Decrease in insulin resistance in diet-induced obese C57Bl/6 mouse assessed as induction of insulin secretion at 50 mg/kg/day, po for 4 weeks by insulin tolerance test; type: functional, organism-based
smiles,measurement,setting,value
CCCn1c(=O)c2c(nc(-c3ccc(OCCN(C)c4ccccn4)cc3)n2CCC)n(C)c1=O,inhibition,3T3-L1,inactive
CN(CCOc1ccc(-c2nc3c([nH]2)c(=O)n(CCCC(=O)O)c(=O)n3C)cc1)c1ccccn1,inhibition,3T3-L1,inactive
CCn1c(-c2ccc(OCCN(C)c3ccccn3)cc2)nc2c1c(=O)n(Cc1ccc(OC)cc1)c(=O)n2C,inhibition,3T3-L1,inactive
C=CCn1c(-c2ccc(OCCN(C)c3ccccn3)cc2)nc2c1c(=O)n(Cc1ccc(OC)cc1)c(=O)n2C,inhibition,3T3-L1,inactive
CCCn1c(=O)c2[nH]c(-c3ccc(OCCN(C)c4ccccn4)cc3)nc2n(C)c1=O,inhibition,3T3-L1,inactive
CCn1c(-c2ccc(OCCN(C)c3ccccn3)cc2)nc2c1c(=O)n(Cc1ccc(F)cc1)c(=O)n2C,inhibition,3T3-L1,inactive
COc1ccc(Cn2c(=O)c3[nH]c(-c4ccc(OCCN(C)c5ccccn5)cc4)nc3n(C)c2=O)cc1,inhibition,3T3-L1,inactive
CN(CCOc1ccc(-c2nc3c(c(=O)n(Cc4ccccc4C#N)c(=O)n3C)n2CCCC(=O)O)cc1)c1ccccn1,inhibition,3T3-L1,inactive
CCCn1c(-c2ccc(OCCN(C)c3ccccn3)cc2)nc2c1c(=O)n(Cc1ccccc1C#N)c(=O)n2C,Activity,Mus musculus [1],3.99
same,Activity,Rattus norvegicus [2],Non-toxic
same,Activity,Mus musculus [3],Active
same,Activity,Mus musculus [4],86 U/L
same,Activity,Mus musculus [5],5.15%
same,Activity,Rattus norvegicus [6],Non-toxic
same,Activity,Mus musculus [7],12.8%
same,Activity,Rattus norvegicus [8],Non-toxic
same,Activity,Mus musculus [9],Non-toxic
same,Activity,Mus musculus [10],inactive
same,Activity,Mus musculus [11],7.64%
same,Activity,Mus musculus [12],inactive
same,Activity,Mus musculus [13],1.15 mM
same,Activity,Mus musculus [14],4.76%
same,inhibition at 10 µM,"3T3-L1; 3T3-L1, 24 h",51.1%
same,Activity,Mus musculus [15],0.96 mM
same,Activity,Mus musculus [16],7.25 mM
same,Activity,Mus musculus [17],12.04 mU
same,Activity,Mus musculus [18],150 U/L
same,Activity,Mus musculus [19],24.43 ng/L
same,Activity,Mus musculus [20],0.16 mM
same,Activity,Mus musculus [21],inactive
C=CCn1c(=O)c2[nH]c(-c3ccc(OCCN(C)c4ccccn4)cc3)nc2n(C)c1=O,inhibition,3T3-L1,inactive
CN(CCOc1ccc(-c2nc3c([nH]2)c(=O)n(CC(=O)O)c(=O)n3C)cc1)c1ccccn1,inhibition,3T3-L1,inactive
CN(CCOc1ccc(-c2nc3c(c(=O)n(Cc4ccccc4C#N)c(=O)n3C)n2C)cc1)c1ccccn1,inhibition,3T3-L1,inactive
CN(CCOc1ccc(-c2nc3c(c(=O)n(Cc4ccccc4C#N)c(=O)n3C)n2CCO)cc1)c1ccccn1,inhibition,3T3-L1,Active
C=CCn1c(-c2ccc(OCCN(C)c3ccccn3)cc2)nc2c1c(=O)n(Cc1ccc(F)cc1)c(=O)n2C,inhibition,3T3-L1,inactive
C=CCn1c(=O)c2c(nc(-c3ccc(OCCN(C)c4ccccn4)cc3)n2CC=C)n(C)c1=O,inhibition,3T3-L1,inactive
